Assay results from patent US20060100180A1, “Composition containing an androgenous 11b-halogen steroid and a progestational hormone, and male contraceptive based on said composition” (priority 2002, published 2006).

Columns and labels:
[1] = effectiveness compared with testosterone; conditions: more effective than testosterone
[2] = cited from earlier work

Row | SMILES | effectiveness relative to testosterone [1] | biological effectiveness compared with testosterone [2]
1 | C[C@@H]1CC2=CC(=O)CC[C@@H]2[C@@H]2[C@@H]1[C@@H]1CC[C@H](O)[C@@]1(C)C[C@@H]2F [Compound A, 11β-fluoro-17β-hydroxy-7α-methyl-estr-4-en-3-one] | about 10 × | –
2 | C[C@@H]1CC2=CC(=O)CC[C@@H]2[C@H]2CC[C@]3(C)[C@@H](O)CC[C@H]3[C@@H]21 [7α-methyl-19-nortestosterone] | – | higher biological effectiveness than testosterone
